# Results from paper PMC7244497 (Scientific Reports, 2020).
# Columns and labels:
# [1] = cited from earlier work
# [2] = tested on: DOP receptor dephosphorylation at T361 and S363; assay: DOP receptor dephosphorylation after DPDPE washout with phosphatase inhibitors (Western blot, HEK293 cells); type: cell-based, human; details: HEK293 HA-hDOP; inhibitor preincubated 30 min, 1 µM DPDPE 10 min, citrate washout, 0-40 min
structure (smiles),measurement,setting,value
"CCN(CC)C(=O)c1ccc(C2=CC3(CCNCC3)Oc3cccc(O)c32)cc1 [ADL5859, N,N-diethyl-4-(5-hydroxyspiro[chromene-2,4′-piperidine]-4-yl)benzamide]",Effective dose in most behavior assays,[1],10 mg/kg
COC[C@@H]([C@H](O)[C@H](O)C(=O)NCC[C@H](C)c1nc(/C=C/C[C@@H]2O[C@]3(C[C@@H](O)[C@@H]2C)O[C@H]([C@H](C[C@H](O)[C@H](C)[C@H](O)[C@H](C)/C=C(C)/C(C)=C/C=C/C(C)=C\C#N)OC)[C@H](OP(=O)(O)O)C3(C)C)co1)N(C)C [calyculin A],Effect on DOP receptor dephosphorylation at T361 and S363,[2],inhibited in a concentration-dependent manner only by calyculin A
"CCN(CC)C(=O)c1ccc(C(=C2CCNCC2)c2ccccc2)cc1 [AR-M1000390, N,N-Diethyl-4-(phenylpiperidin-4-ylidenemethyl)benzamide]",Effective dose in most behavior assays,[1],10 mg/kg
